Measurements as given in ChEMBL document CHEMBL1126250, “Alpha-halo [(phenylphosphinyl)methyl]phosphonates as specific inhibitors of Na(+)-gradient-dependent Na(+)-phosphate cotransport across renal brush border membrane” (1992).

Species: Rattus norvegicus
Assay: In vitro inhibition of Na(+)-gradient-dependent uptake of 32 inorganic phosphate (Pi) by BBM vesicles freshly prepared from the rat renal cortex
Assay type: functional
Set-up: concentration or dose not given beside the values

Question: How did the Inhibition turn out when `O=P(O)(O)C(Cl)(Br)P(=O)(O)c1ccccc1` (configuration not stated) was run?
Answer: -31%

Question: For `O=P(O)(O)C(Cl)(Cl)P(=O)(O)c1ccccc1`, which Inhibition is on record?
Answer: -39%

Question: Which Inhibition does the source give for `O=P(O)(O)C(F)P(=O)(O)c1ccccc1` (configuration not stated) here?
Answer: -49%

Question: With `O=P(O)(O)C(F)(F)P(=O)(O)c1ccccc1` as the compound, how does the Inhibition read?
Answer: -39%

Question: `O=P(O)(O)C(Cl)P(=O)(O)c1ccccc1` (configuration not stated) was tested. Which Inhibition did it give?
Answer: -30%

Question: Which Inhibition does the source give for `O=P(O)(O)C(Br)(Br)P(=O)(O)c1ccccc1` here?
Answer: -22%

Question: For `O=C(O)P(=O)(O)O` [FOSCARNET], which Inhibition is on record?
Answer: -63%
